The NIST ThermoML archive (doi:10.1021/je049776w)

Assay: xn = mol fraction of the nth substance listed
Settings: 101.3 kPa, Liquid

Cc1ccc(C)cc1 [1,4-dimethylbenzene] + CCCCCCC
Settings	mass density [kg/m3]	viscosity [mPa·s]
298.15 K, x1 = 0.0948	694.32	0.4074
298.15 K, x1 = 0.1911	709.39	0.4176
298.15 K, x1 = 0.288	725.04	0.4295
298.15 K, x1 = 0.3865	741.5	0.4436
298.15 K, x1 = 0.4856	758.54	0.4598
298.15 K, x1 = 0.5861	776.51	0.4807
298.15 K, x1 = 0.6877	795.16	0.5047
298.15 K, x1 = 0.7906	814.74	0.5331
298.15 K, x1 = 0.8949	835.24	0.5714
298.15 K, x1 = 1	856.7	0.6162
303.15 K, x1 = 0.0948	690.05	0.382
303.15 K, x1 = 0.1911	705.12	0.3912
303.15 K, x1 = 0.288	720.75	0.4019
303.15 K, x1 = 0.3865	737.2	0.4154
303.15 K, x1 = 0.4856	754.24	0.4304
303.15 K, x1 = 0.5861	772.19	0.4496
303.15 K, x1 = 0.6877	790.83	0.4716
303.15 K, x1 = 0.7906	810.42	0.4979
303.15 K, x1 = 0.8949	830.91	0.5308
303.15 K, x1 = 1	852.35	0.5715
313.15 K, x1 = 0.0948	681.45	0.344
313.15 K, x1 = 0.1911	696.52	0.3523
313.15 K, x1 = 0.288	712.12	0.3623
313.15 K, x1 = 0.3865	728.57	0.374
313.15 K, x1 = 0.4856	745.57	0.3865
313.15 K, x1 = 0.5861	763.52	0.4034
313.15 K, x1 = 0.6877	782.15	0.4234
313.15 K, x1 = 0.7906	801.71	0.444
313.15 K, x1 = 0.8949	822.21	0.4729
313.15 K, x1 = 1	843.64	0.508
323.15 K, x1 = 0.0948	672.73	0.3136
323.15 K, x1 = 0.1911	687.79	0.3211
323.15 K, x1 = 0.288	703.38	0.3304
323.15 K, x1 = 0.3865	719.83	0.3408
323.15 K, x1 = 0.4856	736.82	0.3529
323.15 K, x1 = 0.5861	754.77	0.3683
323.15 K, x1 = 0.6877	773.41	0.3835
323.15 K, x1 = 0.7906	792.97	0.4041
323.15 K, x1 = 0.8949	813.45	0.4285
323.15 K, x1 = 1	834.9	0.4599
333.15 K, x1 = 0.0948	663.88	0.2848
333.15 K, x1 = 0.1911	678.95	0.2922
333.15 K, x1 = 0.288	694.52	0.2997
333.15 K, x1 = 0.3865	710.98	0.3097
333.15 K, x1 = 0.4856	727.97	0.3201
333.15 K, x1 = 0.5861	745.92	0.3345
333.15 K, x1 = 0.6877	764.57	0.3537
333.15 K, x1 = 0.7906	784.15	0.3712
333.15 K, x1 = 0.8949	804.64	0.3973
333.15 K, x1 = 1	826.09	0.4298
343.15 K, x1 = 0.0948	654.83	0.2612
343.15 K, x1 = 0.1911	669.89	0.2658
343.15 K, x1 = 0.288	685.48	0.273
343.15 K, x1 = 0.3865	701.94	0.2818
343.15 K, x1 = 0.4856	718.94	0.2915
343.15 K, x1 = 0.5861	736.91	0.303
343.15 K, x1 = 0.6877	755.57	0.3166
343.15 K, x1 = 0.7906	775.17	0.3317
343.15 K, x1 = 0.8949	795.69	0.3498
343.15 K, x1 = 1	817.17	0.3783
